For one compound, IC50 and EC50 results are on record in article PMC5349910, “Discovery of BPR1K871, a quinazoline based, multi-kinase inhibitor for the treatment of AML and solid tumors: Rational design, synthesis, in vitro and in vivo evaluation” (Oncotarget, 2016).

Molecules are shown by their SMILES.

One test addresses T1, AURKA (Homo sapiens, UniProt O14965).
T1 construct: recombinant GST-AURKA (residues Ser123-Ser401) containing the kinase domain; GST (N); made in house; host or cells: Sf9 insect cells
T1 sequence (O14965 123-401): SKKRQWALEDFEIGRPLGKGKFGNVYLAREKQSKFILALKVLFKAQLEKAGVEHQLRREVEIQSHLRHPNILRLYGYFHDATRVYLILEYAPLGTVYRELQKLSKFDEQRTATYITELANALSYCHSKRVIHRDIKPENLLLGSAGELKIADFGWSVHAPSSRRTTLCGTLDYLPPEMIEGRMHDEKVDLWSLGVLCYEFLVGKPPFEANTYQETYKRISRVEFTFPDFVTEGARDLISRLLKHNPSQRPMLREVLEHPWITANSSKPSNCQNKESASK
Nature of the test: AURKA inhibition assay (Kinase-Glo). It is filed as biochemical. Conditions: mean of at least two independent experiments, within ±15%. The protocol:
AURKA assay was conducted as previously described. Briefly, the recombinant GST-AURKA (residues Ser123-Ser401) containing the kinase domain was expressed in Sf9 insect cells.
Following incubation, 50 μL Kinase-Glo Plus Reagent (Promega, Madison, WI, USA) was added, and the mixture was incubated at 25°C for 20 min.
Background: In Kinase-Glo more light means more ATP remaining.

The target in another test is T2, FLT3 (Homo sapiens, UniProt P36888).
T2 construct: FLT3 kinase catalytic domain (residues Tyr567-Ser993); made in house; host or cells: Sf9 insect cells (baculovirus, pBac-PAK8-GST-FLT3-KD)
T2 sequence (P36888 567-993): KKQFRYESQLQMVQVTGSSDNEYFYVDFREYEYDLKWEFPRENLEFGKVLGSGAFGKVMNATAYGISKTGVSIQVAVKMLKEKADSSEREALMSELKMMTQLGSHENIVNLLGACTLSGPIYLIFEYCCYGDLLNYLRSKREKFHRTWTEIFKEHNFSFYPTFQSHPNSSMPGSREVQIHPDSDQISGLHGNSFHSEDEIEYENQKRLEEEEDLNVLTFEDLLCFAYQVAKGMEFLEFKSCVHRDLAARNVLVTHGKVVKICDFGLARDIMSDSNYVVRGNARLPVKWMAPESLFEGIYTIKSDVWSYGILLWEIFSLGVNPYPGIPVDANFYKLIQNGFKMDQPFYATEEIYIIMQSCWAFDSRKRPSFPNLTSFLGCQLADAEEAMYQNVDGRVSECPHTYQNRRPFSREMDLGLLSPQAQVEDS
The test can be described thus: FLT3 kinase inhibition assay (Kinase-Glo). It is filed as biochemical. The conditions noted are these: mean of at least two independent experiments, within ±15%. As to the method: The FLT3 assay was conducted as previously described. Briefly, GST-FLT3-KD^WT containing the FLT3 kinase catalytic domain (residues Tyr567-Ser993) was expressed in Sf9 insect cells transfected with the baculovirus containing pBac-PAK8-GST-FLT3-KD plasmid.
Following incubation, 50 μL Kinase-Glo Plus Reagent (Promega, Madison, WI, USA) was added, and the mixture was incubated at 25°C for 20 min. A 70 μL aliquot of each reaction mixture was transferred to a black microliter plate, and luminescence was measured on a Wallac Vector 1420 multilabel counter (PerkinElmer, Shelton, CT, USA).

Test [1] has as its system Detroit 551 (human normal skin fibroblast cells). The test can be described thus: MTS cell viability assay, Detroit-551. Type of test: cell-based. The conditions noted are these: 72 h. The protocol:
The MTS cell viability assay was conducted as previously described. The MOLM-13 human leukemia cell line was obtained from the German Resource Centre for Biological Material (DSMZ, Braunschweig, Germany); the MV4-11 cell line was purchased from the American Type Culture Collection (ATCC, Manassas, VA, USA). Both the leukemia cell lines were maintained in RPMI 1640 medium supplemented with 10% fetal bovine serum (FBS), 10 UmL^-1 penicillin, and […] streptomycin at 37°C and 5% CO2. The Detroit-551, COLO205, and Mia-PaCa2 cell lines were purchased from the American Type Culture Collection (ATCC, Manassas, VA, USA) and cultured according to instructions of ATCC. To determine cell viability after drug treatment, assay for MOLM-13 and MV4-11 was performed by seeding 10000 cells per well in a 96-well culture plate. Detroit-551, COLO205, and Mia-PaCa2 were seeded at density of 2500, 4000, and 3750 cells per well, respectively. After 16 h, cells were then treated with vehicle or various concentrations of compound in medium for 72 h. Viable cells were quantified using the MTS method (Promega, Madison, WI, USA) according to the manufacturer's recommended protocol. Results were determined by measuring the absorbance at 490 nm using a plate reader (Victor2; PerkinElmer, Shelton, CT, USA).
In general terms: Formazan colour is commonly taken as a measure of viable cells.

The next test deals with CYP 2E1 (Homo sapiens, UniProt P05181). The test can be described thus: CYP inhibition assay, CYP 2E1. It is filed as in vitro ADME.
CYP 2E1, sequence (P05181 whole entry): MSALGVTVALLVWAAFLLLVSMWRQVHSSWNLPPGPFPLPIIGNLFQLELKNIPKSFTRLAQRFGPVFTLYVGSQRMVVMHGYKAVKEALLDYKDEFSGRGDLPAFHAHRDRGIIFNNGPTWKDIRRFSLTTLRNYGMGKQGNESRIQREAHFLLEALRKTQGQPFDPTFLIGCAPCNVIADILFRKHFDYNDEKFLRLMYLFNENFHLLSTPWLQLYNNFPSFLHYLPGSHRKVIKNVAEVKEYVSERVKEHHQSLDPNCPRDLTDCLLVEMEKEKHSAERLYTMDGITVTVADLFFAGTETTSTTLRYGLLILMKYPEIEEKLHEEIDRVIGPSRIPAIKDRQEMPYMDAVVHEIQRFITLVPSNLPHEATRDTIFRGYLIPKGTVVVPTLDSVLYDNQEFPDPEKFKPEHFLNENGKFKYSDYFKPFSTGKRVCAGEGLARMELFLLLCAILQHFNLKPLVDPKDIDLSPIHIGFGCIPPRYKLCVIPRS

A word on the IC50: it is the concentration needed to halve the response being measured. By EC50 is commonly meant the concentration needed to bring the measured effect to its halfway point. Higher therefore signals a need for much substance. For the compound `CN(C)CCCOc1ccc2c(NCCc3cnc(NC(=O)Nc4cccc(Cl)c4)s3)ncnc2c1` [BPR1K871, 1-(3-Chlorophenyl)-3-(5-(2-((7-(3-(dimethylamino)propoxy)quinazolin-4-yl)amino)ethyl)thiazol-2-yl)urea], the IC50 at AURKA was 22 nM; at FLT3 it was 19 nM; at CYP 2E1 it was greater than 4 µM. For the same compound, in test [1], a half-maximal response (EC50) required 4 µM.
